{"source": "patent US4087421A", "about": "“Substituted benzodiazepines and method of use” (American Cyanamid Company, priority 1977, dated 1978)", "key": {"[1]": {"test": "Prevention of reserpine-induced hypothermia in rats", "assay_type": "in vivo", "details": "for ED50: Rattus norvegicus, oral, dose column in mg/kg, read-out: ED50 (95% C.L.)", "procedure": "Groups of 5 rats were treated orally with graded doses of the test compounds. One hour later the animals were treated with reserpine (solubilized in propylene glycol and citric acid) at a dose of 5 mg/kg intraperitoneally. Rectal temperatures were measured using a YSI Telethermometer. Temperatures were recorded just prior to treatment, one hour later just prior to reserpine administration and at hourly intervals following reserpine administration for 5 hours. […]"}, "[2]": {"test": "Inhibition of tetrabenazine induced depression of exploratory behavior in mice", "assay_type": "in vivo", "details": "for Number Responded/Number Treated: intraperitoneally or orally, 1 h before tetrabenazine 30 mg/kg; for ED50: Mus musculus, calculated by method of Finney, dose column in mg/kg, read-out: ED50 (95% C.L.)", "procedure": "Varying doses of the test compounds are administered intraperitoneally or orally to 5 mice one hour before the administration of tetrabenazine hexamate at an intraperitoneal dose of 30 mg/kg which is known to depress markedly the exploratory behavior of normal mice. Thirty minutes later the mice are tested for their exploratoy behavior. Individual mice are placed in the center of a horizontal disc. Inhibition of the depression induced by tetrabenazine is considered present if the mice perform one or more of the following actions within 10 seconds after being placed on the disc:\n(1) Animals move to the edge of the disc and pear over the side.\n(2) Animals move 180° in place.\n(3) Animals display a head movement of 90° immediately followed by a head movement in the opposite direction of at least 45°.\nAdministration of the test compounds to additional groups of 5 mice is repeated, the numbers of individual animals showing an anti-depressant response (normal exploratory behavior) is recorded and the results are analyzed by the following scheme (statistically standardized; significant P = less than 0.05).\nThe results from several dose levels (acceptance in at least two sequential test procedures) are then used to establish the Range of Active Doses."}, "[3]": {"test": "\"writhing syndrome\" test for analgesic activity (phenyl p-quinone)", "assay_type": "in vivo, male Swiss albino mice", "details": "6.25 mg/kg oral; control approximately 30 per pair; active if 18 or less", "procedure": "This method is based upon the reduction of the number of writhes following the intraperitoneal injection of one mg./kg. of body weight of phenyl p-quinone in male Swiss albino mice weighing 15-25 g. The syndrome is characterized by intermittent contractions of the abdomen, twisting and turning of the trunk, and extension of the hind legs beginning 3 to 5 minutes after injection of the phenyl p-quinone. The test compounds are administered orally at the indicated dose to groups of 2 mice each, 30 minutes before injection of the phenyl p-quinone."}, "[4]": {"test": "reduction of spontaneous motor activity (Animax Activity Counter)", "assay_type": "in vivo", "details": "Rattus norvegicus, 5 min; oral, rats, 5 minute period; read-out: MDD50 (effective dose that causes a 50% reduction in motor activity)", "procedure": "A useful test for anti-psychotic activity consists of measuring the reduction of spontaneous motor activity in animals.\nGroups of 4 rats are treated orally with the test compound dissolved or suspended in starch vehicle at the maximum tolerated dose. At the estimated time of peak effect, the animals are placed singly into an Animax Activity Counter and the activity of each rat is recorded over a 5 minute period. The activity counts are compared to historical or parallel control values to determine significant increased or decreased locomotor activity."}, "[5]": {"test": "reversible ptosis test", "assay_type": "in vivo", "details": "oral, rats", "procedure": "A useful test for anti-psychotic activity consists of measuring ptosis in animals.\nPtosis is defined as closure of the palpebral aperture (eyelid) greater than 70%. The compounds to be tested were administered orally to groups of 10 rats each. Periodically after treatment the rats were gently placed on the cage top and examined for 90 seconds for signs of ptosis. This manipulation eliminates spontaneous ptosis. The rats were then dropped from a height of about 18 inches (exteroceptive stimulation) onto the cage top to test for reversibility of ptosis. Reversible ptosis is defined as less than 70% closure of the palpebral aperture for longer than one minute after the exteroceptive stimulation and is indicative of neuroleptic activity of the drug administered."}}, "note": "Values joined by “and” are separate entries in the source; they are usually repeats but may differ in a detail not shown here. Equal values may be shown once.", "data": [{"smiles": "CN(C)CCCN1c2ccccc2CCc2ccccc21", "note": "[Imipramine, reference compound]", "values": [{"measurement": "Percent of Animals Showing > Two Standard Deviations in Rectal Temperature Over Control Means", "setting": "[1]; 0.20 mg/kg oral, 2 hours after reserpine", "result": 0, "unit": "%"}, {"measurement": "Percent of Animals Showing > Two Standard Deviations in Rectal Temperature Over Control Means", "setting": "[1]; 0.20 mg/kg oral, 3 hours after reserpine", "result": 0, "unit": "%"}, {"measurement": "Percent of Animals Showing > Two Standard Deviations in Rectal Temperature Over Control Means", "setting": "[1]; 0.20 mg/kg oral, 4 hours after reserpine", "result": 0, "unit": "%"}, {"measurement": "Percent of Animals Showing > Two Standard Deviations in Rectal Temperature Over Control Means", "setting": "[1]; 0.20 mg/kg oral, 5 hours after reserpine", "result": 0, "unit": "%"}, {"measurement": "Percent of Animals Showing > Two Standard Deviations in Rectal Temperature Over Control Means", "setting": "[1]; 0.39 mg/kg oral, 2 hours after reserpine", "result": 0, "unit": "%"}, {"measurement": "Percent of Animals Showing > Two Standard Deviations in Rectal Temperature Over Control Means", "setting": "[1]; 0.39 mg/kg oral, 3 hours after reserpine", "result": 10, "unit": "%"}, {"measurement": "Percent of Animals Showing > Two Standard Deviations in Rectal Temperature Over Control Means", "setting": "[1]; 0.39 mg/kg oral, 4 hours after reserpine", "result": 0, "unit": "%"}, {"measurement": "Percent of Animals Showing > Two Standard Deviations in Rectal Temperature Over Control Means", "setting": "[1]; 0.39 mg/kg oral, 5 hours after reserpine", "result": 0, "unit": "%"}, {"measurement": "Percent of Animals Showing > Two Standard Deviations in Rectal Temperature Over Control Means", "setting": "[1]; 0.78 mg/kg oral, 2 hours after reserpine", "result": 21, "unit": "%"}, {"measurement": "Percent of Animals Showing > Two Standard Deviations in Rectal Temperature Over Control Means", "setting": "[1]; 0.78 mg/kg oral, 3 hours after reserpine", "result": 0, "unit": "%"}, {"measurement": "Percent of Animals Showing > Two Standard Deviations in Rectal Temperature Over Control Means", "setting": "[1]; 0.78 mg/kg oral, 4 hours after reserpine", "result": 0, "unit": "%"}, {"measurement": "Percent of Animals Showing > Two Standard Deviations in Rectal Temperature Over Control Means", "setting": "[1]; 0.78 mg/kg oral, 5 hours after reserpine", "result": 7, "unit": "%"}, {"measurement": "Percent of Animals Showing > Two Standard Deviations in Rectal Temperature Over Control Means", "setting": "[1]; 1.56 mg/kg oral, 2 hours after reserpine", "result": 40, "unit": "%"}, {"measurement": "Percent of Animals Showing > Two Standard Deviations in Rectal Temperature Over Control Means", "setting": "[1]; 1.56 mg/kg oral, 3 hours after reserpine", "result": 20, "unit": "%"}, {"measurement": "Percent of Animals Showing > Two Standard Deviations in Rectal Temperature Over Control Means", "setting": "[1]; 1.56 mg/kg oral, 4 hours after reserpine", "result": 20, "unit": "%"}, {"measurement": "Percent of Animals Showing > Two Standard Deviations in Rectal Temperature Over Control Means", "setting": "[1]; 1.56 mg/kg oral, 5 hours after reserpine", "result": 40, "unit": "%"}, {"measurement": "Percent of Animals Showing > Two Standard Deviations in Rectal Temperature Over Control Means", "setting": "[1]; 3.13 mg/kg oral, 2 hours after reserpine", "result": 100, "unit": "%"}, {"measurement": "Percent of Animals Showing > Two Standard Deviations in Rectal Temperature Over Control Means", "setting": "[1]; 3.13 mg/kg oral, 3 hours after reserpine", "result": 90, "unit": "%"}, {"measurement": "Percent of Animals Showing > Two Standard Deviations in Rectal Temperature Over Control Means", "setting": "[1]; 3.13 mg/kg oral, 4 hours after reserpine", "result": 80, "unit": "%"}, {"measurement": "Percent of Animals Showing > Two Standard Deviations in Rectal Temperature Over Control Means", "setting": "[1]; 3.13 mg/kg oral, 5 hours after reserpine", "result": 100, "unit": "%"}, {"measurement": "Percent of Animals Showing > Two Standard Deviations in Rectal Temperature Over Control Means", "setting": "[1]; 6.25 mg/kg oral, 2 hours after reserpine", "result": 100, "unit": "%"}, {"measurement": "Percent of Animals Showing > Two Standard Deviations in Rectal Temperature Over Control Means", "setting": "[1]; 6.25 mg/kg oral, 3 hours after reserpine", "result": 100, "unit": "%"}, {"measurement": "Percent of Animals Showing > Two Standard Deviations in Rectal Temperature Over Control Means", "setting": "[1]; 6.25 mg/kg oral, 4 hours after reserpine", "result": 100, "unit": "%"}, {"measurement": "Percent of Animals Showing > Two Standard Deviations in Rectal Temperature Over Control Means", "setting": "[1]; 6.25 mg/kg oral, 5 hours after reserpine", "result": 100, "unit": "%"}, {"measurement": "Percent of Animals Showing > Two Standard Deviations in Rectal Temperature Over Control Means", "setting": "[1]; 12.5 mg/kg oral, 2 hours after reserpine", "result": 100, "unit": "%"}, {"measurement": "Percent of Animals Showing > Two Standard Deviations in Rectal Temperature Over Control Means", "setting": "[1]; 12.5 mg/kg oral, 3 hours after reserpine", "result": 80, "unit": "%"}, {"measurement": "Percent of Animals Showing > Two Standard Deviations in Rectal Temperature Over Control Means", "setting": "[1]; 12.5 mg/kg oral, 4 hours after reserpine", "result": 100, "unit": "%"}, {"measurement": "Percent of Animals Showing > Two Standard Deviations in Rectal Temperature Over Control Means", "setting": "[1]; 12.5 mg/kg oral, 5 hours after reserpine", "result": 100, "unit": "%"}, {"measurement": "ED50", "setting": "[1]; 2 hours after reserpine", "result": 1.2, "unit": "mg/kg"}, {"measurement": "ED50", "setting": "[1]; 3 hours after reserpine", "result": 2.2, "unit": "mg/kg"}, {"measurement": "ED50", "setting": "[1]; 4 hours after reserpine", "result": 2.2, "unit": "mg/kg"}, {"measurement": "ED50", "setting": "[1]; 5 hours after reserpine", "result": 1.3, "unit": "mg/kg"}, {"measurement": "Number Responded/Number Treated", "setting": "[2]; 0.78 mg/kg", "result": "1/10"}, {"measurement": "Number Responded/Number Treated", "setting": "[2]; 1.56 mg/kg", "result": "2/10"}, {"measurement": "Number Responded/Number Treated", "setting": "[2]; 3.13 mg/kg", "result": "4/10"}, {"measurement": "Number Responded/Number Treated", "setting": "[2]; 6.25 mg/kg", "result": "7/10"}, {"measurement": "Number Responded/Number Treated", "setting": "[2]; 12.5 mg/kg", "result": "7/10"}, {"measurement": "Number Responded/Number Treated", "setting": "[2]; 25.0 mg/kg", "result": "9/10"}, {"measurement": "ED50", "setting": "[2]", "result": 4.4, "unit": "mg/kg"}]}, {"smiles": "CN1c2ccccc2N=C(N2CCNCC2)c2cscc21", "note": "[4-Methyl-10-(1-piperazinyl)-4H-thieno[3,4-b][1,5]benzodiazepine]", "values": [{"measurement": "Number Responded/Number Treated", "setting": "[2]; 1.56 mg/kg", "result": "5/30"}, {"measurement": "Number Responded/Number Treated", "setting": "[2]; 3.13 mg/kg", "result": "10/30"}, {"measurement": "Number Responded/Number Treated", "setting": "[2]; 6.25 mg/kg", "result": "9/20"}, {"measurement": "Number Responded/Number Treated", "setting": "[2]; 12.5 mg/kg", "result": "11/20"}, {"measurement": "Number Responded/Number Treated", "setting": "[2]; 25.0 mg/kg", "result": "10/20"}, {"measurement": "ED50", "setting": "[2]", "result": 13, "unit": "mg/kg"}]}, {"smiles": "CN1CCN(C2=Nc3ccc(Cl)cc3Nc3cscc32)CC1", "note": "[6-Chloro-10-(4-methyl-1-piperazinyl)-4H-thieno[3,4-b][1,5]benzodiazepine]", "values": [{"measurement": "No. of Writhes Per Pair", "setting": "[3]", "result": "7 and 6"}, {"measurement": "ED50", "setting": "[4]", "result": 7.7, "unit": "mg/kg"}, {"measurement": "ED50 (dose estimated to create reversible ptosis in 50% of the animals)", "setting": "[5]", "result": 17, "unit": "mg/kg"}]}]}
